pEC50: −log10 of the molar value. Where two headings read alike, the source gives them in different places.
What was measured:
GluN1/GluN2D [1] = target: GluN1/GluN2D (Rattus norvegicus, UniProt Q62645); format: cell-based; conditions: absence of QNZ46; continuous presence of glycine
GluN1/GluN2D [2] = target: GluN1/GluN2D (Rattus norvegicus, UniProt P35439+Q62645); conditions: read-out: EC50 of agonist
Chain of GluN1/GluN2D (Rattus norvegicus, UniProt P35439+Q62645) (Q62645 28-1323, other chains not shown): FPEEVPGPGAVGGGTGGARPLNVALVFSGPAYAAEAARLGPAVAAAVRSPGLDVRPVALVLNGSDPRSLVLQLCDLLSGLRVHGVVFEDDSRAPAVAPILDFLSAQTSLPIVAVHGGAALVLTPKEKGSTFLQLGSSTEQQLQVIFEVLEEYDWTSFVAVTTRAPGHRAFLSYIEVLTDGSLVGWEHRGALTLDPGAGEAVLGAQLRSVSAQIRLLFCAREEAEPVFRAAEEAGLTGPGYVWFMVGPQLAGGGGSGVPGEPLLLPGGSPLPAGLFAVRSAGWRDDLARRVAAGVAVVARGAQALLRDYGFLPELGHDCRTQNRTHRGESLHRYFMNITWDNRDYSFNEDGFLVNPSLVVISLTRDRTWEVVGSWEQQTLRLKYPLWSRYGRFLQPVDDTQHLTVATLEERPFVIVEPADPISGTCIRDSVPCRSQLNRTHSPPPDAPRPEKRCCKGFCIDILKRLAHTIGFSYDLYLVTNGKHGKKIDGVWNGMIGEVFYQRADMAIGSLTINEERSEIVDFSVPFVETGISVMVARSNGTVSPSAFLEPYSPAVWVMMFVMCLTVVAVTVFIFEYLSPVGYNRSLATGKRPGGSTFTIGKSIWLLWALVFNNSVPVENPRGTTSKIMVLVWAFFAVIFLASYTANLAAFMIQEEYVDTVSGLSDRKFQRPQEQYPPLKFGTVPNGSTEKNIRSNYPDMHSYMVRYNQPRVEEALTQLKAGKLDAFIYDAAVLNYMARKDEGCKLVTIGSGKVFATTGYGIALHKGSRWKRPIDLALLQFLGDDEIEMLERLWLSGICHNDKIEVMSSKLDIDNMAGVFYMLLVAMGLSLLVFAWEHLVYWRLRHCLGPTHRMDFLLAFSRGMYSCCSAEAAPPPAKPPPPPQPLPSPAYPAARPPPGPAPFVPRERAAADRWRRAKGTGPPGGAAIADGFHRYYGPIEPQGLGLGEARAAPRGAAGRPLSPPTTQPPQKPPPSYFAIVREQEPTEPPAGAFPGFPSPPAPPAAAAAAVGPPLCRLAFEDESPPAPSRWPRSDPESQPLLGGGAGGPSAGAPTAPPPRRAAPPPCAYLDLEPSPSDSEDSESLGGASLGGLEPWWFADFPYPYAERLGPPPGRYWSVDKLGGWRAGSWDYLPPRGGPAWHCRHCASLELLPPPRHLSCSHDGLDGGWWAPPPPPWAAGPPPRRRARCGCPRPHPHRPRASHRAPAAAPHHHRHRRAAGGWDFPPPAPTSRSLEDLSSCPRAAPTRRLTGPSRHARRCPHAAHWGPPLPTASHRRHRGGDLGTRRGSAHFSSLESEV

Chain of GluN1/GluN2D (Rattus norvegicus, UniProt Q62645) (Q62645 28-1323, other chains not shown): as above

N[C@@H](CCC(=O)O)C(=O)O [glutamate]
time constant for agonist deactivation (τweighted) (GluN1/GluN2D [1]): 3810 ms
pEC50 (GluN1/GluN2D [2]; in the absence of QNZ46): 6.36
pEC50 (GluN1/GluN2D [2]; in the presence of 10 μM QNZ46): 6.66
